Patent US20250059160A1, “Chemical Activators of Nicotinamide Mononucleotide adenylyltransferase 2 (NMNAT2) and Uses Thereof” (Tsinghua University, priority 2018, published 2025)
Entries after “also recorded” stand apart in the source; their conditions may differ.

Experiments:
NMNAT3 = NMNAT3 (Homo sapiens, UniProt Q96T66); assay: doubly coupled enzyme assay prepared for NMNAT3; format: biochemical; settings: 3 μM compound, FIG. 3, NMNAT isoform comparison
Description: (§1) A doubly coupled enzyme assay was prepared for NMNAT1, NMNAT2 and NMNAT3. NMNAT activation is normalized, where the reaction rate of NMNAT in the presence of 3 μM of compound NSC was compared to that of a DMSO-treated control.
(§2) These compounds might represent direct activators of the NMNAT2 enzyme.

CIPN mice model = assay: paclitaxel-induced CIPN mouse model, Von Frey test; format: in vivo
Text: The procedure of CIPN mouse model and treatment regimen is shown in the upper panel.
Chemotherapy-induced peripheral neuropathy (CIPN) arises from the peripheral nerve damage by anticancer pharmacotherapy, leading to a progressive, enduring, and debilitating condition featuring pain, numbness, tingling and sensitivity to cold in the hands and feet. CIPN afflicts between 30% and 40% of patients undergoing chemotherapy, but currently no effective treatment for CIPN exists (del Pino BM, 2010). Chemotherapy drugs associated with CIPN include the antimitotic drugs such as paclitaxel and vinblastine, which are widely used for the treatment of a variety of cancer. To evaluate the neuroprotective efficacy of the compounds in vivo, we developed an aggressive CIPN mice model as presented in FIG. 5.
Mice were daily administrated with compound 20, at doses of 6, 2, 0.6 and 0 mg/kg (5 animals per group, i.p.) from one week prior to the initiation of paclitaxel (D-7) to 8th day after the initiation of paclitaxel (D8). After one-week pre-dosing with compound 20, mice were injected intraperitoneally with paclitaxel at a dose of 2 mg/kg on 4 alternate days (Day 0, 2, 4, 6). The Von Frey test was conducted the other day after the last administration of paclitaxel. […] Mice were daily administrated with compound NSC, at doses of 1, 3, and 10 mg/kg (5-6 animals per group, i.p.) from one week prior to the initiation of taxol (paclitaxel) (D-7) to 8th day after the initiation of paclitaxel (D8). After one-week pre-dosing with compound NSC, mice were injected intraperitoneally with paclitaxel at a dose of 2 mg/kg on 4 alternate days (Day 0, 2, 4, 6). The Von Frey test was conducted the other day after the last administration of taxol (paclitaxel).

NMNAT2 = NMNAT2 (Homo sapiens, UniProt Q9BZQ4); assay: doubly coupled NMNAT2 enzyme assay (NMNAT2 + ADH, NADH fluorescence); format: biochemical
Chain of NMNAT2 (Q9BZQ4 whole entry, species assumed): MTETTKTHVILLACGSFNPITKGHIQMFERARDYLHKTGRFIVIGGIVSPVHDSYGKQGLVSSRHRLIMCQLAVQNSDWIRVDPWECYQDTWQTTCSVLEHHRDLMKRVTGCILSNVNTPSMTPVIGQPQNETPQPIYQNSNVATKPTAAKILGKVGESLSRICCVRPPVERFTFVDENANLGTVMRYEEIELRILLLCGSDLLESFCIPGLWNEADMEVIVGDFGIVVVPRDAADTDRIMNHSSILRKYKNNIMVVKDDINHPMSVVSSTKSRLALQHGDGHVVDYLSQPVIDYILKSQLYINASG
Description: In a doubly coupled enzyme assay, the first enzyme NMNAT2 (it converted NMN to NAD) and the second enzyme ADH (it converted NAD to NADH) as well as compound NSC at a concentration of 3 μM were used, and the conversion of NMN to NADH was monitored by measuring fluorescence intensity of NADH at an excitation of 340 nm and an emission of 445 nm (Y axis) as a function of time (X axis).
A high-throughput screen was performed in search of compounds capable of activating NMNAT2, an important NAD biosynthetic enzyme. Roughly 50,000 synthetic organic chemicals were tested in a doubly coupled NMNAT assay that contains two enzymes, NMNAT2 and alcohol dehydrogenase (ADH). […] The conversion of NMN to NADH was monitored by measuring fluorescence intensity of NADH at an excitation of 340 nm and an emission of 445 nm (Y axis) as a function of time (X axis). Fluorescence at ex340 nm/em445 nm (F340/445) was measured continuously for 30 minutes at room temperature to establish the reaction velocity. […] The reaction rate is expressed as the concentration of NADH (equivalent to NAD) formed per minute. Since the concentration of NADH is reflected by F340/445, the reaction rate is thus the slope of the linear kinetic curve of F340/445 versus time at time t, written as F340 445/min, which is calculated in the equation: reaction rate=ΔF340/445/Δt. […]

NMNAT1 = NMNAT1 (Homo sapiens, UniProt Q9HAN9); assay: doubly coupled enzyme assay prepared for NMNAT1; format: biochemical; settings: 3 μM compound, FIG. 3, NMNAT isoform comparison
Chain of NMNAT1 (Q9HAN9 whole entry, species assumed, canonical isoform): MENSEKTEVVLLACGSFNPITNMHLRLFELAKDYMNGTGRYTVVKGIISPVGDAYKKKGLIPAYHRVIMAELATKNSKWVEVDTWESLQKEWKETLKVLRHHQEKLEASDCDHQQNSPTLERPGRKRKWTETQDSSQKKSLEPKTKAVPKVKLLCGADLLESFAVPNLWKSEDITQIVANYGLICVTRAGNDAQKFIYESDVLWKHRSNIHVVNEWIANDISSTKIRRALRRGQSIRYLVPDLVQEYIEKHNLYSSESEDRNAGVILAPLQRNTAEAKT
Description: as §1, §2

SARM1-expressing cells = assay: protection from SARM1-mediated toxicity, cell viability by CellTiter-Glo; format: cell-based; settings: 0.1, 0.3, 1, 3, 10, and 30 μM, 24 hours, FIG. 4
Description: SARM1-expressing cells were treated with compound NSC at 0.1, 0.3, 1, 3, 10, and 30 μM. After 24 hours, the cell images in bright field were taken under the microscope before cell viability was determined by measuring ATP levels using CellTiter-Glo assay kit.
In the first assay, the compounds were added at 1, 3, 10, 30 and 100 μM in the reaction mixture. The reaction rate of NMNAT2 enzyme was calculated as the slope of the F340/445 versus time curve, and was normalized by DMSO-treated control. The dose response curves were plotted to assess the effects of individual compounds on NMNAT2 enzymatic activity. […] After 24 hours, the cell survival was measured by Cell-titer Glo kit, and normalized by DMSO-treated control. […]
Compounds NSC and 1-40 were evaluated in two independent assays: an in vitro enzyme assay measuring activation of NMNAT2 and a cell-based assay measuring the degree of protection from SARM1 expression in cells. […] The conversion of NMN to NADH was monitored by measuring fluorescence intensity of NADH at an excitation of 340 nm and an emission of 445 nm (Y axis) as a function of time (X axis). Fluorescence at ex340 nm/em445 nm (F340/445) was measured continuously for 30 minutes at room temperature to establish the reaction velocity. The reaction rate of NMNAT2 enzyme was expressed as the concentration of NADH (equivalent to NAD) formed per minute. […]

[1] = tested on: alcohol dehydrogenase (ADH); assay: ADH enzyme assay with NAD as substrate (counter-screen); format: biochemical; settings: 5 μM compound, 50 μM NAD
Description: In a secondary screen, the compounds with the relative reaction rate higher than 150% are cherry-picked and retested in triplicates in the doubly coupled NMNAT2 assay. […] Briefly, the ADH enzyme reaction was prepared to contain 50 mM Tris-Cl (pH 8.0), 12 mM MgCl2, 1.5% ethanol, 10 mM semicarbizide, 0.2% bovine serum albumin (BSA), and 0.04 units ADH. 40 µl of the mixture was dispensed into 384-well black polypropylene plates, and individual compounds were added to each well at a final concentration of 5 μM. The reaction was initiated by addition of 50 μM NAD followed by gentle mixing in the plate. The conversion of NAD to NADH was monitored by measuring fluorescence intensity of NADH at an excitation of 340 nm and an emission of 445 nm (Y axis) as a function of time (X axis). Fluorescence at ex340 nm/em445 nm was measured continuously for 30 minutes to establish the kinetic reaction curve of F340/445 versus time. The reaction rates were calculated as described in the NMNAT2 assay. The relative ADH enzyme reaction rate in the presence of each compound is normalized by DMSO-treated control.

Chain of NMNAT3 (Q96T66 whole entry, species assumed, canonical isoform): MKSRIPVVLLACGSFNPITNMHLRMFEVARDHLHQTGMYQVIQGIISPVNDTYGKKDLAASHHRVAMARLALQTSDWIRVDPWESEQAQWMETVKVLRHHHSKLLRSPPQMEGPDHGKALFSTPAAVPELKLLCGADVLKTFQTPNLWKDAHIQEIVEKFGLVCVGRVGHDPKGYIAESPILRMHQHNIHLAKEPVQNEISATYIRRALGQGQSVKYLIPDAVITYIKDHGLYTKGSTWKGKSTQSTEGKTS

Row | Compound | NMNAT3 activation (reaction rate compared to DMSO-treated control) (NMNAT3) | mice paw pressure threshold (Von Frey test) (CIPN mice model; 3 mg/kg/day i.p., D-7 to D8, paclitaxel 2 mg/kg on days 0, 2, 4, 6, FIG. 6) | mice paw pressure threshold (Von Frey test) (CIPN mice model; 10 mg/kg/day i.p., D-7 to D8, paclitaxel 2 mg/kg on days 0, 2, 4, 6, FIG. 6) | mice paw pressure threshold (Von Frey test) (CIPN mice model; FIG. 6 legend, dose not stated there) | NMNAT2 activation (reaction rate compared to DMSO-treated control) (NMNAT2; 3 μM compound, FIG. 3, NMNAT isoform comparison) | level of activation in the doubly coupled NMNAT2 assay (NMNAT2; high-throughput screen hits, FIG. 2 with compound at 3 μM) | NMNAT1 activation (reaction rate compared to DMSO-treated control) (NMNAT1) | protection of cultured cells against SARM1-mediated toxicity (cell viability, ATP levels) (SARM1-expressing cells) | activity in the ADH assay (relative ADH enzyme reaction rate) [1] | mice paw pressure threshold (Von Frey test) (CIPN mice model; 6 mg/kg/day i.p., D-7 to D8, paclitaxel 2 mg/kg on days 0, 2, 4, 6, FIG. 5)
1 | C/C(=N\NC(=S)N1CCC1)c1ccccn1 [Compound NSC, (E)-N′-(1-(pyridin-2-yl)ethylidene)azetidine-1-carbothiohydrazide] | not NMNAT3 | significantly increased the mice paw pressure threshold | significantly increased the mice paw pressure threshold | significantly increased the mice paw pressure threshold | activated NMNAT2 strongly; also recorded: activates NMNAT2 | most robust level of activation; also recorded: NMNAT2 activation | NMNAT1 weakly; also recorded: activates NMNAT2 and NMNAT1 | protects cultured cells against SARM1-mediated toxicity | inactive in the ADH assay | –
2 | C/C(=N\NC(=S)NN)c1ccccn1 [Compound 20, (E)-N′-(1-(pyridin-2-yl)ethylidene)hydrazinecarbothiohydrazide] | – | – | – | – | – | – | – | – | – | significantly increased the mice paw pressure threshold
